{"source": "the supplement of paper PMC10307832", "assay_in_all_cases": "relative viability (nuclei count vs DMSO), 5 days (fraction); higher = more cells survive", "key": {"GSK-J4 + Foretinib": {"compound": "CCOC(=O)CCNc1cc(N2CCc3ccccc3CC2)nc(-c2ccccn2)n1 [GSK-J4] + COc1cc2c(Oc3ccc(NC(=O)C4(C(=O)Nc5ccc(F)cc5)CC4)cc3F)ccnc2cc1OCCCN1CCOCC1 [Foretinib] (partner 0.25 µM)", "in_short": "(§1)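 Medians of duplicate plates are given as relative viability. That measure is the nuclei count in treated wells divided by the count in vehicle wells. Counts were taken on 4× images of lung cancer cell lines in 1536-well plates, 5 days after pin-tool dosing the day after seeding with one drug alone or a fixed anchor-drug dose plus five library-drug doses (not always all listed) in √10 steps.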"}, "GSK-J4 + Pemetrexed": {"compound": "CCOC(=O)CCNc1cc(N2CCc3ccccc3CC2)nc(-c2ccccn2)n1 [GSK-J4] + Nc1nc2[nH]cc(CCc3ccc(C(=O)N[C@@H](CCC(=O)O)C(=O)O)cc3)c2c(=O)[nH]1 [Pemetrexed] (partner 0.2 µM)", "in_short": "as §1"}, "AZ3146 + Bortezomib": {"compound": "CN1CCC(CC1)OC2=CC(=C(C=C2)NC3=NC=C4C(=N3)N(C(=O)N4C)C5CCCC5)OC [AZ3146] + CC(C)C[C@H](NC(=O)[C@H](Cc1ccccc1)NC(=O)c1cnccn1)B(O)O [Bortezomib] (partner 0.002 µM)", "in_short": "as §1"}, "AZ3146 + Crizotinib": {"compound": "CN1CCC(CC1)OC2=CC(=C(C=C2)NC3=NC=C4C(=N3)N(C(=O)N4C)C5CCCC5)OC [AZ3146] + C[C@@H](Oc1cc(-c2cnn(C3CCNCC3)c2)cnc1N)c1c(Cl)ccc(F)c1Cl [Crizotinib] (partner 1 µM)", "in_short": "as §1"}}}
{"cell line": "UMC-11", "values": [{"measurement": "relative viability", "setting": "GSK-J4 + Foretinib; first compound 0.5 µM", "value": 0.896}, {"measurement": "relative viability", "setting": "GSK-J4 + Foretinib; first compound 5 µM", "value": 1.07}, {"measurement": "relative viability", "setting": "GSK-J4 + Foretinib; first compound 15.81 µM", "value": 1.08}, {"measurement": "relative viability", "setting": "GSK-J4 + Foretinib; first compound 50 µM", "value": 0.556}, {"measurement": "relative viability", "setting": "GSK-J4 + Pemetrexed; first compound 0.5 µM", "value": 0.759}, {"measurement": "relative viability", "setting": "GSK-J4 + Pemetrexed; first compound 1.581 µM", "value": 0.667}, {"measurement": "relative viability", "setting": "GSK-J4 + Pemetrexed; first compound 5 µM", "value": 0.736}, {"measurement": "relative viability", "setting": "GSK-J4 + Pemetrexed; first compound 15.81 µM", "value": 0.771}, {"measurement": "relative viability", "setting": "GSK-J4 + Pemetrexed; first compound 50 µM", "value": 0.649}, {"measurement": "relative viability", "setting": "AZ3146 + Bortezomib; first compound 0.08 µM", "value": 0.814}, {"measurement": "relative viability", "setting": "AZ3146 + Bortezomib; first compound 0.253 µM", "value": 0.661}, {"measurement": "relative viability", "setting": "AZ3146 + Bortezomib; first compound 0.8 µM", "value": 0.598}, {"measurement": "relative viability", "setting": "AZ3146 + Bortezomib; first compound 2.53 µM", "value": 0.675}, {"measurement": "relative viability", "setting": "AZ3146 + Bortezomib; first compound 8 µM", "value": 0.635}, {"measurement": "relative viability", "setting": "AZ3146 + Crizotinib; first compound 0.08 µM", "value": 0.569}, {"measurement": "relative viability", "setting": "AZ3146 + Crizotinib; first compound 0.253 µM", "value": 0.636}, {"measurement": "relative viability", "setting": "AZ3146 + Crizotinib; first compound 0.8 µM", "value": 0.461}, {"measurement": "relative viability", "setting": "AZ3146 + Crizotinib; first compound 2.53 µM", "value": 0.177}, {"measurement": "relative viability", "setting": "AZ3146 + Crizotinib; first compound 8 µM", "value": 0.136}]}
